From the Biogen ADME set (Fang et al. 2023)
In brackets after ≈: the same amount, converted by molar mass.

Conditions: for aqueous solubility: pH 6.8

SMILES | MDR1-MDCK efflux ratio | intrinsic clearance, human liver microsomes | intrinsic clearance, rat liver microsomes | aqueous solubility | fraction unbound, human plasma | fraction unbound, rat plasma
CC(C)c1noc(CNC(=O)N2C[C@H]3C[C@@H](C2)c2cccc(=O)n2C3)n1 | 3.14 | 7.35 mL/min/kg | 73.7 mL/min/kg |  |  | 
Nc1nc2ccccc2n1CCCc1ccccc1 | 0.966 | 13.4 mL/min/kg | 463 mL/min/kg | 27.2 µg/mL (≈ 108 µM) |  | 
O=C(Nc1ccc(C(=O)O)c(O)c1)c1ccc(NC(=O)c2cccs2)cc1 | 0.572 | ≤ 4.74 mL/min/kg | ≤ 10.7 mL/min/kg | 54.3 µg/mL (≈ 142 µM) |  | 
COc1cc(/C=C/c2nccc(C#N)n2)ccc1F |  |  |  | 3.27 µg/mL (≈ 12.8 µM) |  | 
Cc1ccccc1Cn1c(=O)c2c(nc3n(-c4ccccc4O)c(C)cn23)n(C)c1=O | 21.8 |  |  | 0.91 µg/mL (≈ 2.19 µM) |  | 
CC1(C)COCCN1Cc1cnn(-c2ccccc2)n1 | 0.545 | 10.7 mL/min/kg | 1070 mL/min/kg | 14.7 µg/mL (≈ 54.1 µM) |  | 
O=C1c2cccc3cccc(c23)C(=O)N1CCN1CCOCC1 | 0.595 | 12.1 mL/min/kg | 424 mL/min/kg | 36.9 µg/mL (≈ 119 µM) |  | 
Cc1nc2c(c(N(C)Cc3ccccc3)n1)CCN(Cc1ccccc1)C2 | 0.742 | 657 mL/min/kg | 4170 mL/min/kg | 29.7 µg/mL (≈ 82.8 µM) |  | 
O=C(CCCCCCC(=O)Nc1ccccc1)NO |  | ≤ 4.74 mL/min/kg | 27.4 mL/min/kg |  |  | 
Nc1ccnc2ccc(Oc3ccccc3)cc12 | 0.486 | 13.5 mL/min/kg | 2330 mL/min/kg |  |  | 
CC(C)Cn1c(=O)[nH]c(=O)c2c1nc1n2CCCCC1 | 3.54 | 7.18 mL/min/kg | 28.2 mL/min/kg | 62.7 µg/mL (≈ 227 µM) |  | 
Cc1ccc(C(=O)Nc2ccccc2-c2ccccc2)o1 | 0.465 | 257 mL/min/kg | 503 mL/min/kg | 35.5 µg/mL (≈ 128 µM) |  | 
CC(C)(C)c1ccc(C(=O)Nc2ccc(C(=O)Nc3ccccc3)cc2)cc1 | 0.455 |  |  | 0.4 µg/mL (≈ 1.07 µM) |  | 
COc1ccc2c(c1)C=C(CN1CCC(c3cc(-c4cncnc4)cc(C)n3)CC1)CO2 | 1.42 | 49.8 mL/min/kg | 201 mL/min/kg | 22.9 µg/mL (≈ 53.3 µM) |  | 
Cc1cccc(OCCn2c(N)nc3ccccc32)c1 |  | 4.93 mL/min/kg | 2200 mL/min/kg | 39.1 µg/mL (≈ 146 µM) |  | 
CC(=O)N[C@H]1CCN(C(=O)N[C@H](C)C(c2ccccc2)c2ccccc2)C1 | 113 | 63.6 mL/min/kg | 825 mL/min/kg |  |  | 
COCC1(CNC(=O)c2cc(Cl)cnc2O)CCC1 | 5.64 | 16.3 mL/min/kg | 475 mL/min/kg |  |  | 
CCc1cc(=O)[nH]c(SCCN2CCCCC2)n1 | 3.43 | ≤ 4.74 mL/min/kg | 441 mL/min/kg |  |  | 
COc1cc(CN2CCCNCC2)cc2c1OCO2 | 8.38 | 5.17 mL/min/kg | 72.9 mL/min/kg |  |  | 
Cc1nn(-c2ccc(C(=O)O)cc2C#Cc2ccccc2)c(C)c1C | 3.82 | ≤ 4.74 mL/min/kg | 595 mL/min/kg | 46.4 µg/mL (≈ 140 µM) |  | 
COc1cccc([C@@H](C)n2cnc3cn(C)nc3c2=O)c1 | 1.44 | ≤ 4.74 mL/min/kg | 67.2 mL/min/kg |  |  | 
Cc1cccc(NC(=O)CSc2nncs2)c1 | 0.51 | 22.6 mL/min/kg | 278 mL/min/kg |  |  | 
Cn1ncnc1NCc1cc(F)cc(F)c1 | 0.757 | ≤ 4.74 mL/min/kg | ≤ 10.7 mL/min/kg |  |  | 
O=C(c1ccccc1)N1CCN2C(=O)N(Cc3ccccc3)C(=O)[C@H]2C1 | 1.52 | 6.77 mL/min/kg | 78.8 mL/min/kg | 62.3 µg/mL (≈ 178 µM) |  | 
Cc1noc(C(C)C)c1C(=O)N1CC(C)OC(c2ccccc2)C1 (stereo not given) | 0.943 | 71.2 mL/min/kg | 1610 mL/min/kg |  | 0.152 | 0.129
CN(Cc1cnccn1)Cc1nc(N)c2ccccc2n1 |  | 15 mL/min/kg | 458 mL/min/kg |  |  | 
Cc1cccc(NC(=O)C(=O)c2c(C)nn(C)c2C)n1 |  | 19.4 mL/min/kg | 231 mL/min/kg |  |  | 

Now from value to molecule:

MDR1-MDCK efflux ratio | intrinsic clearance, human liver microsomes | intrinsic clearance, rat liver microsomes | aqueous solubility | fraction unbound, human plasma | fraction unbound, rat plasma | SMILES
0.791 | 164 mL/min/kg | 1300 mL/min/kg | 29.9 µg/mL (≈ 79.3 µM) |  |  | O=C(c1ccccn1)N1CCCC(c2cccc(-c3cccc(Cl)c3)n2)C1 (stereo not given)
1.26 | ≤ 4.74 mL/min/kg | ≤ 10.7 mL/min/kg | 52.2 µg/mL (≈ 201 µM) |  |  | O=C(NCC1CC1)c1cncn1-c1ccc(F)cc1
 | ≤ 4.74 mL/min/kg | 58.9 mL/min/kg | 36.4 µg/mL (≈ 140 µM) |  |  | O=C(NCc1cccc(O)c1)Nc1ccccc1F
 |  |  | 1.65 µg/mL (≈ 6.95 µM) |  |  | O=C(Nc1nc2ccccc2[nH]1)c1ccccc1
28 | 281 mL/min/kg | 1650 mL/min/kg |  |  |  | O=C(c1cccc(Nc2ncccn2)c1)N1CCOCC(Cc2cccc3ccncc23)C1 (stereo not given)
0.43 |  |  | 0.35 µg/mL (≈ 1.06 µM) |  |  | COc1ccc(C(=O)Nc2cc(-c3ccc(F)c(F)c3)no2)cc1
10.6 | 131 mL/min/kg | 2020 mL/min/kg |  |  |  | O=C(CC1c2ccccc2CCc2ccccc21)NCCN1CCOCC1
6.14 | ≤ 4.74 mL/min/kg | 106 mL/min/kg | 3.03 µg/mL (≈ 7.88 µM) |  |  | O=C(NCc1ccc(F)cc1)C1CCN(C(=O)/C=C/c2ccc(F)cc2)CC1
5.92 | 6.88 mL/min/kg | 1270 mL/min/kg |  |  |  | O=C(NCC1CCC2(CC1)OCCO2)c1[nH]nc2c1CCCC2
0.596 | ≤ 4.74 mL/min/kg | 20.7 mL/min/kg | 36.5 µg/mL (≈ 153 µM) |  |  | N#Cc1ccc(CN2CC(n3cccn3)C2)cc1
 |  |  | 65.5 µg/mL (≈ 177 µM) |  |  | O=C(NCCc1c[nH]c2cccc(C3(O)CCOCC3)c12)c1cccs1
0.525 | 130 mL/min/kg | 819 mL/min/kg |  |  |  | CCOCCNC(=O)c1cccc(-c2cc(F)ccc2OC)c1
0.246 | 85.5 mL/min/kg | 80.9 mL/min/kg | 33 µg/mL (≈ 131 µM) |  |  | COc1ccccc1C(=O)Nc1cccc(C#N)c1
21.9 |  |  | 0.3 µg/mL (≈ 0.615 µM) |  |  | CC(=O)c1cnc2ccc(-c3cc(Cl)c(O)c(Cl)c3)nc2c1N[C@H]1CC[C@H](CN(C)C)CC1
9.45 | 129 mL/min/kg | 561 mL/min/kg | 45.3 µg/mL (≈ 104 µM) |  |  | CCCn1cc(C(=O)N2CCC(c3n[nH]cc3C(=O)N(C)Cc3ccccc3)CC2)cn1
0.951 | ≤ 4.74 mL/min/kg | 40.3 mL/min/kg | 30.4 µg/mL (≈ 125 µM) |  |  | c1cnc(-n2cccn2)c(CNC2CCCC2)c1
